From patent US20060188938A1, “Compounds for inhibiting beta-amyloid production and methods of identifying the compounds” (priority 2005, published 2006) come the findings set out here.

The subject of data set [1] is β-amyloid production by 7W WT APP751 CHO cells. Briefly: Measurement of Aβ1-40 and Aβ1-42 by ELISA in culture medium (Example 1, calcium channel blockers). Format: cell-based, Chinese hamster. The procedure: Chinese hamster ovary (CHO) cells, stably transfected with human APP751 (7W WT APP751 CHO cells) were used. See, e.g., Koo and Squazzo, J. Biol. Chem., Vol. 269, Issue 26, 17386-17389, July, 1994. The cells were maintained in DMEM medium supplemented with 10% fetal bovine serum and 1× mixture of penicillin/streptomycin/fungizone/glutamine mixture (Cambrex, MD) geneticin as selecting agent in 75 cm^2 cell culture flasks.
(§1) The 7W WT APP751 CHO cells were plated in 24-well cell culture plates in quadruplicate, containing 1 ml of culture medium, and treated with various calcium channel blocker compounds for 4 hours, 24 hours or 48 hours at 37° C. and 5% CO2. All test compounds were diluted in dimethyl sulfoxide (DMSO) before being added to the cultured confluent 7W WT APP751 CHO cells. The culture medium was collected and diluted 5-fold for the 4 hours assay and 50-fold for the 24 hour assay before being assayed by ELISAs for Aβ1-40 and Aβ1-42, respectively. Concentrations of Aβ1-40 and Aβ1-42, expressed in pg/ml, were determined using commercially available ELISAs (Biosource, CA) in a colorimetric assay using labeled antibodies detected spectrophotometrically.
G-sec Inhib XIX, SKF 96365, 2-APB, felodipine, FPL, clotrimazole, tetrandrine, R24571, and econazole are available, as Calbiochem products from EMD Biosciences, Inc., La Jolla, Calif.; nilvadipine, nitrendipine and amlodipine (amlodipine besylate) are available, e.g., from Fujisawa, Osaka, Japan; thapsigargin, BAPTA-AM and TA9 (Tyrphostin A9) are available, e.g., as a Sigma product from Sigma-Aldrich Corp., St. Louis, Mo.; and felodipine, diltiazem, S(−)Bay K8644, R(+)Bay K8644, MRS 1845, SR 33805, loperamide, and isradipine are available from Tocris Cookson Inc., Ellisville, Mo.
(In general: In an ELISA, binding on a coated surface is turned into a signal by an enzyme label.)

For data set [2] the test system is unchanged. Briefly: Screening of dihydropyridine compounds of Table 2, Aβ1-40 and Aβ1-42 (Example 5). Format: cell-based, Chinese hamster. Conditions: for concentration of Aβ1-40 compared to control: 3 and 10 μM, 24 hours (FIG. 24); for concentration of Aβ1-40 or Aβ1-42 compared to control: 3, 10, 30 and 100 μM, 24 hours (FIGS. 22A, 22B, 23A, 23B). The procedure:
as §1
The screening of dihydropyridine compounds was conducted according to the procedure described in Example 1. Each compound was added to confluent cells to a final concentration of 3, 10, 30 or 100 μM and tested. Each of these compounds was added to confluent cells to a final concentration of 3 μM (noted as “C” in FIG. 24) or 10 μM (noted as “B” in FIG. 24).

The mark [3] stands for this setting: 30 μM, cells plated at low density, 24 hours (FIG. 1C).
[4] abbreviates: 30 μM, cells plated at low density, 48 hours (FIG. 1D).

For `CN(C)C(=O)C(CCN1CCC(O)(c2ccc(Cl)cc2)CC1)(c1ccccc1)c1ccccc1` [loperamide], in data set [1] (30 μM (FIG. 4)), the “concentration of Aβ1-40 compared to controls” value is reported as “significantly decreased”, the “concentration of Aβ1-42 compared to controls” value is on record as “significantly decreased” and the “concentration of total β-amyloid compared to controls” value is on record as “significantly decreased”.

Take `CC1=C(C(=O)OC(C)(C)C)C(c2cc(Br)ccc2F)C(C(=O)OC(C)(C)C)=C(C)N1` [Example 3-42]: the “concentration of Aβ1-40 compared to control” value in data set [2] is given as “decreased”.

Turning to `CCOC(=O)C1=C(C)NC(C)=C(C(=O)OCC)C1c1ccccc1Br` [Example 2-23, Diethyl 4-(2-bromophenyl)-1,4-dihydro-2,6-dimethylpyridine-3,5-dicarboxylate], the “concentration of Aβ1-40 or Aβ1-42 compared to control” value in data set [2] was “decreased”.

On to `COCCOC(=O)C1=C(C)NC(C)=C(C(=O)OCCOC)C1c1ccc(Br)cc1` [Example 3-38, Bis(2-methoxyethyl) 4-(4-bromophenyl)-1,4-dihydro-2,6-dimethylpyridine-3,5-dicarboxylate], for which the “concentration of Aβ1-40 compared to control” value in data set [2] is “decreased”.

Regarding `CC1=C(C(=O)OC(C)(C)C)C(c2cccc(F)c2F)C(C(=O)OC(C)(C)C)=C(C)N1` [Example 3-23], the “concentration of Aβ1-40 compared to control” value in data set [2] was “decreased”.

As for `COCCOC(=O)C1=C(C)NC(C)=C(C(=O)OCCOC)C1c1cccc(Br)c1` [Example 3-37], in data set [2], the “concentration of Aβ1-40 compared to control” value is “decreased”.

Regarding `COC(=O)C1=C(C#N)NC(C)=C(C(=O)OC(C)C)C1c1cccc([N+](=O)[O-])c1` (stereo not drawn) [nilvadipine], the “concentration of Aβ1-40 compared to controls” value is recorded as “significantly decreased” in data set [1] (30 μM (FIG. 3)); “significantly decreased” in data set [1] (30 μM, 24 hours (FIG. 1B)); “significantly decreased” in data set [1] (setting [3]); “significantly decreased” in data set [1] (setting [4]). Besides, the “concentration of total β-amyloid compared to controls” value in data set [1] (30 μM (FIG. 3)) is “significantly decreased”.

On to `Clc1ccc(C(c2ccc(Cl)cc2)[n+]2ccn(CC(OCc3ccc(Cl)cc3Cl)c3ccc(Cl)cc3Cl)c2)cc1.[Cl-]` (stereo not drawn) [Example R24571, 1-[bis(p-chlorophenyl)methyl]-3-[2-(2,4-di-chloro-β-(2,4-dichlorobenzyl-oxy)phenethyl)]-imidazolium chloride], for which, in data set [1] (5 μM (FIG. 4)), the “concentration of Aβ1-40 compared to controls” value is reported as “significantly decreased” and the “concentration of total β-amyloid compared to controls” value is recorded as “significantly decreased”.

Regarding `COc1ccc2cc1Oc1ccc(cc1)C[C@H]1c3cc(c(OC)cc3CCN1C)Oc1c(OC)c(OC)cc3c1[C@H](C2)N(C)CC3` [tetrandine, tetrandrine], the “concentration of Aβ1-40 compared to controls” value in data set [1] (5 μM (FIG. 4)), in data set [1] (10 μM (FIG. 4)), in data set [1] (20 μM (FIG. 4)) and in data set [1] (30 μM (FIG. 4)) was “significantly decreased” throughout. Further, the “concentration of total β-amyloid compared to controls” value in data set [1] (5 μM (FIG. 4)), in data set [1] (10 μM (FIG. 4)), in data set [1] (20 μM (FIG. 4)) and in data set [1] (30 μM (FIG. 4)) was “significantly decreased” throughout.

Take `CC1=C(C(=O)OC(C)(C)C)C(c2ccc(Br)cc2F)C(C(=O)OC(C)(C)C)=C(C)N1` [Example 3-34, Di-tert-butyl 4-(4-bromo-2-fluorophenyl)-1,4-dihydro-2,6-dimethylpyridine-3,5-dicarboxylate]: the “concentration of Aβ1-40 compared to control” value in data set [2] is “decreased”.

Regarding `CCOC(=O)C1=C(C)NC(C)=C(C(=O)OCC)C1c1cc(Br)ccc1F` [Example 3-41, Diethyl 4-(5-bromo-2-fluorophenyl)-1,4-dihydro-2,6-dimethylpyridine-3,5-dicarboxylate], the “concentration of Aβ1-40 compared to control” value in data set [2] is on record as “decreased”.

Regarding `CCOC(=O)C1=C(C)NC(C)=C(C(=O)OCC)C1c1ccc(Br)cc1F` [Example 3-33], the “concentration of Aβ1-40 compared to control” value in data set [2] was “decreased”.

As to `CCOC(=O)C1=C(C)NC(C)=C(C(=O)OCC)C1c1ccccc1F` [Example 2-27, Diethyl 4-(2-fluorophenyl)-1,4-dihydro-2,6-dimethylpyridine-3,5-dicarboxylate], the “concentration of Aβ1-40 or Aβ1-42 compared to control” value in data set [2] is listed as “decreased”.

As for `C#CCN1C(C)=C(C(=O)OC)C(c2cccc([N+](=O)[O-])c2)C(C(=O)OCC)=C1C` (stereo not drawn) [MRS 1845, N-propargylnitrendipine], in data set [1] (30 μM (FIG. 3)), the “concentration of Aβ1-40 compared to controls” value is recorded as “significantly decreased” and the “concentration of total β-amyloid compared to controls” value is on record as “significantly decreased”.

For the molecule `CCOC(=O)C1=C(C)NC(C)=C(C(=O)OC)C1c1cccc([N+](=O)[O-])c1` (stereo not drawn) [nitrendipine], the “concentration of Aβ1-40 compared to controls” value in data set [1] (30 μM (FIG. 3)), in data set [1] (setting [3]) and in data set [1] (setting [4]) was “significantly decreased” in each case. Further, the “concentration of total β-amyloid compared to controls” value in data set [1] (30 μM (FIG. 3)) was “significantly decreased”.

`COc1ccc(CCCOC(Cn2ccnc2)c2ccc(OC)cc2)cc1.Cl` (stereo not drawn) [SKF 96365, 1-[beta-[3-(4-methoxyphenyl)propoxy]-4-methoxyphenethyl]-1H-imidazole hydrochloride]: the “concentration of Aβ1-40 compared to controls” value in data set [1] (15 μM, 24 hours (FIG. 1B)) is given as “significantly decreased”. Also, in data set [1] (30 μM (FIG. 2)), the “concentration of Aβ1-40 compared to controls” value is “significantly decreased”, the “concentration of Aβ1-42 compared to controls” value is given as “significantly decreased” and the “concentration of total β-amyloid compared to controls” value was “significantly decreased”. Further, the “concentration of Aβ1-40 compared to controls” value in data set [1] (30 μM, 24 hours (FIG. 1B)) is reported as “significantly decreased”.

In the case of `CC(C)(C)c1cc(C=C(C#N)C#N)cc(C(C)(C)C)c1O` [tyrphostin A9], in data set [1] (20 μM (FIG. 2)), the “concentration of Aβ1-40 compared to controls” value is on record as “significantly decreased”, the “concentration of Aβ1-42 compared to controls” value was “significantly decreased” and the “concentration of total β-amyloid compared to controls” value was “significantly decreased”.

Consider `CC1=C(C(=O)OC(C)(C)C)C(c2ccccc2Br)C(C(=O)OC(C)(C)C)=C(C)N1` [Example 2-32, Di-tert-butyl 4-(2-bromophenyl)-1,4-dihydro-2,6-dimethylpyridine-3,5-dicarboxylate], for which the “concentration of Aβ1-40 or Aβ1-42 compared to control” value in data set [2] is “decreased”.

On to `CC1=C(C(=O)OC(C)(C)C)C(c2ccccc2[N+](=O)[O-])C(C(=O)OC(C)(C)C)=C(C)N1` [Example 2-33, Di-tert-butyl 1,4-dihydro-2,6-dimethyl-4-(2-nitrophenyl)pyridine-3,5-dicarboxylate], for which the “concentration of Aβ1-40 or Aβ1-42 compared to control” value in data set [2] is listed as “decreased”.

In the case of `COCCOC(=O)C1=C(C)NC(C)=C(C(=O)OCCOC)C1c1ccccc1Cl` [Example 2-19], the “concentration of Aβ1-40 or Aβ1-42 compared to control” value in data set [2] was “decreased”.

Take `Clc1ccccc1C(c1ccccc1)(c1ccccc1)n1ccnc1` [clotrimazole]: in data set [1] (20 μM (FIG. 4)), the “concentration of Aβ1-40 compared to controls” value is on record as “significantly decreased” and the “concentration of total β-amyloid compared to controls” value was “significantly decreased”.

As usually defined, the melting point is the temperature of the solid-liquid transition. `CC1=C(C(=O)OC(C)(C)C)C(c2cccc(Cl)c2)C(C(=O)OC(C)(C)C)=C(C)N1` [Example 21, Di-tert-butyl 4-(3-chlorophenyl)-1,4-dihydro-2,6-dimethylpyridine-3,5-dicarboxylate] returned a melting point of 189.5 to 190.5 °C.

Consider `CCOC(=O)C1=C(C)N(Cc2ccccc2)C(C)=C(C(=O)OCC)C1c1ccc(Br)cc1` [Example 54, Diethyl 1-benzyl-4-(4-bromophenyl)-1,4-dihydro-2,6-dimethylpyridine-3,5-dicarboxylate], for which the melting point lay within 168 to 169 °C.

In turn, `C=CCOC(=O)C1=C(C)NC(C)=C(C(=O)OCC=C)C1c1ccc(Br)cc1` [Example 40, Diallyl 4-(4-bromophenyl)-1,4-dihydro-2,6-dimethylpyridine-3,5-dicarboxylate] came in with a melting point of 130 to 131 °C.

Molecule `CC1=C(C(=O)OC(C)(C)C)C(c2ccc(Cl)cc2)C(C(=O)OC(C)(C)C)=C(C)N1` [Example 23, Di-tert-butyl 4-(4-chlorophenyl)-1,4-dihydro-2,6-dimethylpyridine-3,5-dicarboxylate] displayed a melting point of 191.5 to 192.5 °C.

Turning to `COCCOC(=O)C1=C(C)NC(C)=C(C(=O)OCCOC)C1c1ccccc1Cl` [Example 10, Bis(2-methoxyethyl) 4-(2-chlorophenyl)-1,4-dihydro-2,6-dimethylpyridine-3,5-dicarboxylate], the melting point fell in the range of 120 to 121 °C.
